Assay results taken from BigSolDB 2.1.

CC(C)(OOC(C)(C)c1ccccc1)c1ccccc1
solubility (mole fraction)
Conditions	274.15 K	278.15 K	282.15 K	286.15 K	290.15 K	294.15 K	298.15 K	302.15 K
in DMF	0.152	0.196	0.246	0.305	0.365	0.44	0.518	0.619
in ethanol	0.0152	0.0188	0.0236	0.0303	0.0418	0.0573	0.0851	0.142
in isopropanol	0.0132	0.0168	0.0219	0.0291	0.0398	0.0567	0.0859	0.143
in methanol	0.00668	0.00933	0.0118	0.0154	0.02	0.0283	0.0395	0.0602
in n-butanol	0.0241	0.0317	0.0407	0.0541	0.07	0.0974	0.144	0.237
in n-propanol	0.019	0.0253	0.0317	0.0425	0.0568	0.0783	0.118	0.194
in sec-butanol	0.0161	0.0208	0.0275	0.036	0.0486	0.0724	0.107	0.183
